Experimental data published in ChEMBL document CHEMBL3046457, “Chemical characterization of the aphid antifeedant extracts from Dittrichia viscosa and Ferula communis” (2012).

Experiments:
Type in all cases: functional
Myzus persicae [1] = assay: Insecticidal activity against Myzus persicae (green peach aphid) in compound treated leaf disk assessed as settled on leaf disk at 10 ug/cm'2 relative to control (reference value: 39 +/- 6 to 98 +/- 1%)
Myzus persicae [2] = assay: Insecticidal activity against Myzus persicae (green peach aphid) in compound treated leaf disk assessed as settled on leaf disk at 50 ug/cm'2 relative to control (reference value: 39 +/- 6 to 98 +/- 1%)
Myzus persicae [3] = assay: Insecticidal activity against Myzus persicae (green peach aphid) in compound treated leaf disk assessed as settled on leaf disk at 100 ug/cm'2 relative to control (reference value: 39 +/- 6 to 98 +/- 1%)
Myzus persicae [4] = assay: Insecticidal activity against Myzus persicae (green peach aphid) in compound treated leaf disk assessed as settling inhibition on leaf disk at 100 ug/cm'2 relative to control
Myzus persicae [5] = assay: Insecticidal activity against Myzus persicae (green peach aphid) in compound treated leaf disk assessed as settling inhibition on leaf disk at 10 ug/cm'2 relative to control
Myzus persicae [6] = assay: Insecticidal activity against Myzus persicae (green peach aphid) in compound treated leaf disk assessed as settling inhibition on leaf disk at 50 ug/cm'2 relative to control
Myzus persicae [7] = assay: Insecticidal activity against Myzus persicae (green peach aphid) in compound treated leaf disk assessed as settled on leaf disk

Row | Compound | inhibition (INH) (Myzus persicae [1]) | inhibition (INH) (Myzus persicae [2]) | inhibition (INH) (Myzus persicae [3]) | inhibition (INH) (Myzus persicae [4]) | inhibition (INH) (Myzus persicae [5]) | inhibition (INH) (Myzus persicae [6]) | ED50 (Myzus persicae [7])
1 | CC(C)=CCC/C(C)=C/CC/C(C)=C/Cc1c(O)c2ccccc2oc1=O | 28% | 20% | 26% | 62% | 63% | 71% | –
2 | C=C1C(=O)O[C@H]2CC(=C)[C@H]3CC[C@@](C)(O)[C@@H]3C[C@H]12 [INUVISCOLIDE] | 43% | 39% | 31% | 56% | 38% | 50% | –
3 | C=C1C(=O)O[C@@H]2C[C@H](C)C(CCC(C)=O)=CC[C@H]12 [TOMENTOSIN] | 61% | 35% | 2% | 98% | 19% | 48% | 31.9 microg/cm2
